Measured values taken from patent US11298363B2, “Triazolobenzazepines as vasopressin V1a receptor antagonists” (RICHTER GEDEON NYRT., priority 2017, dated 2022).

Legend:
[1] = target: T1, human vasopressin V1a receptor (Homo sapiens, UniProt P37288); assay: Human vasopressin V1a receptor binding assay; settings: 1321N1 cell membranes, [3H]vasopressin; read-out: Ki (nM) on hV1a cell line
Summary of the method: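 Radioligand competition on membranes from cells expressing human V1a receptor; incubation 60 minutes at 27° C., non-specific binding with 1.2×10^−6 M unlabeled (Arg^8)-vasopressin, filtration separation. Ki by Cheng-Prusoff using Scatchard-derived KD, from at least two independent experiments.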

[2] = target: T1, human vasopressin V1a receptor; assay: Functional assay on human vasopressin V1a receptor expressing cell line (intracellular Ca2+ fluorescence); format: cell-based; settings: 1321N1 cells, (Arg8)-vasopressin at EC80; read-out: IC50 (nM) on hV1a cell line

T1 sequence (P37288 whole entry): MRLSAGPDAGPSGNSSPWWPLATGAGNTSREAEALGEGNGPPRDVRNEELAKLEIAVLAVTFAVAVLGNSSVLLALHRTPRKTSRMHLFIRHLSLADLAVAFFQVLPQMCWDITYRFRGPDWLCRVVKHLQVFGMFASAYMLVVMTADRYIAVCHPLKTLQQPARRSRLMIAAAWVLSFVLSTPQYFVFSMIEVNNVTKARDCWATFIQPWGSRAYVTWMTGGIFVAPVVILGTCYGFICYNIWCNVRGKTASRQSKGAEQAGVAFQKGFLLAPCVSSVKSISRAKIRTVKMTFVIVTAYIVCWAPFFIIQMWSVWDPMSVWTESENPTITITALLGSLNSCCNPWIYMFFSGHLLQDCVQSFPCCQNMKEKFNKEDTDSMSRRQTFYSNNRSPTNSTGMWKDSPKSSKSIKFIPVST

| SMILES | Ki [1] | IC50 [2] |
| --- | --- | --- |
| CC(C)N(C)C1Cc2cc(Cl)ccc2-n2c(nnc2[C@H]2CC[C@H](Oc3ccccn3)CC2)C1 (stereo partly drawn) [Example 138, 8-chloro-N-methyl-N-(propan-2-yl)-1-[trans-4-(pyridin-2-yloxy)cyclohexyl]-5,6-dihydro-4H-[1,2,4]triazolo[4,3-a][1]benzazepin-5-amine] | 0.2 nM | 5 nM |
| CC(C)(C)OC(=O)NC1Cc2cc(Cl)ccc2-n2c(nnc2N2CCN(c3ncccc3Cl)CC2)C1 (stereo not shown) [Example 139, Tert-butyl {8-chloro-1-[4-(3-chloropyridin-2-yl)piperazin-1-yl]-5,6-dihydro-4H-[1,2,4]triazolo[4,3-a][1]benzazepin-5-yl}carbamate] | 9.3 nM | 130 nM |
| COC1Cc2cc(Cl)ccc2-n2c(nnc2C2CCN(C(=O)OC(C)(C)C)CC2)C1 (stereo not shown) [Example 140, Tert-butyl 4-(8-chloro-5-methoxy-5,6-dihydro-4H-[1,2,4]triazolo[4,3-a][1]benzazepin-1-yl)piperidine-1-carboxylate] | 2.4 nM | 57 nM |
| CC(C)[C@@H](N)C(=O)N[C@@H]1Cc2cc(Cl)ccc2-n2c(nnc2[C@H]2CC[C@H](Oc3ccccn3)CC2)C1 [Example 141, N-{(5R)-8-chloro-1-[trans-4-(pyridin-2-yloxy)cyclohexyl]-5,6-dihydro-4H-[1,2,4]triazolo[4,3-a][1]benzazepin-5-yl}-D-valinamide] | 0.7 nM | 8.9 nM |
| CC(C)(C)OC(=O)NC1Cc2ccccc2-n2c(nnc2[C@H]2CC[C@H](Oc3ccccn3)CC2)C1 (stereo partly drawn) [Example 142, Tert-butyl {1-[trans-4-(pyridin-2-yloxy)cyclohexyl]-5,6-dihydro-4H-[1,2,4]triazolo[4,3-a][1]benzazepin-5-yl}carbamate] | 14.3 nM | 225 nM |
| CC(C)(C)OC(=O)NC1Cc2cc(F)ccc2-n2c(nnc2[C@H]2CC[C@H](Oc3ccccn3)CC2)C1 (stereo partly drawn) [Example 143, Tert-butyl {8-fluoro-1-[trans-4-(pyridin-2-yloxy)cyclohexyl]-5,6-dihydro-4H-[1,2,4]triazolo[4,3-a][1]benzazepin-5-yl}carbamate] | 5 nM | 156 nM |
| NC1Cc2ccccc2-n2c(nnc2[C@H]2CC[C@H](Oc3ccccn3)CC2)C1 (stereo partly drawn) [Example 144, 1-[trans-4-(pyridin-2-yloxy)cyclohexyl]-5,6-dihydro-4H-[1,2,4]triazolo[4,3-a][1]benzazepin-5-amine] | 34 nM | 168 nM |
| NC1Cc2cc(F)ccc2-n2c(nnc2[C@H]2CC[C@H](Oc3ccccn3)CC2)C1 (stereo partly drawn) [Example 145, 8-fluoro-1-[trans-4-(pyridin-2-yloxy)cyclohexyl]-5,6-dihydro-4H-[1,2,4]triazolo[4,3-a][1]benzazepin-5-amine] | 12.7 nM | 47 nM |
| CC(C)NC1Cc2cc(F)ccc2-n2c(nnc2[C@H]2CC[C@H](Oc3ccccn3)CC2)C1 (stereo partly drawn) [Example 146, 8-fluoro-N-(propan-2-yl)-1-[trans-4-(pyridin-2-yloxy)cyclohexyl]-5,6-dihydro-4H-[1,2,4]triazolo[4,3-a][1]benzazepin-5-amine] | 3.2 nM | 78 nM |
| CN(C)C1Cc2cc(F)ccc2-n2c(nnc2[C@H]2CC[C@H](Oc3ccccn3)CC2)C1 (stereo partly drawn) [Example 147, 8-fluoro-N,N-dimethyl-1-[trans-4-(pyridin-2-yloxy)cyclohexyl]-5,6-dihydro-4H-[1,2,4]triazolo[4,3-a][1]benzazepin-5-amine] | 1 nM | 9.4 nM |
| CN(C)C1Cc2ccccc2-n2c(nnc2[C@H]2CC[C@H](Oc3ccccn3)CC2)C1 (stereo partly shown) [Example 148] | 1.2 nM | 26 nM |
| Fc1ccc2c(c1)CC1(Cc3nnc([C@H]4CC[C@H](C(F)(F)F)CC4)n3-2)OCCO1 [Example 149, 8′-fluoro-1′-[trans-4-(trifluoromethyl)cyclohexyl]-4′H,6′H-spiro[1,3-dioxolane-2,5′-[1,2,4]triazolo[4,3-a][1]benzazepine]] | 0.8 nM | 15 nM |
| CC(C)NC1Cc2ccccc2-n2c(nnc2[C@H]2CC[C@H](Oc3ccccn3)CC2)C1 (stereo partly drawn) [Example 150, N-(propan-2-yl)-1-[trans-4-(pyridin-2-yloxy)cyclohexyl]-5,6-dihydro-4H-[1,2,4]triazolo[4,3-a][1]benzazepin-5-amine] | 5 nM | 94 nM |

Second part, the molecule after the results:

| Ki [1] | IC50 [2] | SMILES |
| --- | --- | --- |
| 30 nM | 209 nM | O=C(N[C@H]1Cc2cc(Cl)ccc2-n2c(nnc2[C@H]2CC[C@H](Oc3ccccn3)CC2)C1)C1CCOCC1 [Example 151] |
| 67 nM | 737 nM | CCC(C)C(=O)N[C@H]1Cc2cc(Cl)ccc2-n2c(nnc2[C@H]2CC[C@H](Oc3ccccn3)CC2)C1 (stereo partly shown) [Example 152] |
| 20.5 nM | 307 nM | CN(C)CCC(=O)N[C@H]1Cc2cc(Cl)ccc2-n2c(nnc2[C@H]2CC[C@H](Oc3ccccn3)CC2)C1 [Example 153, N-{(5S)-8-chloro-1-[trans-4-(pyridin-2-yloxy)cyclohexyl]-5,6-dihydro-4H-[1,2,4]triazolo[4,3-a][1]benzazepin-5-yl}-N^3,N^3-dimethyl-β-alaninamide] |
| 0.8 nM | 21 nM | Clc1ccc2c(c1)C[C@H](NC1CCCC1)Cc1nnc([C@H]3CC[C@H](Oc4ccccn4)CC3)n1-2 [Example 154, (5S)-8-chloro-N-cyclopentyl-1-[trans-4-(pyridin-2-yloxy)cyclohexyl]-5,6-dihydro-4H-[1,2,4]triazolo[4,3-a][1]benzazepin-5-amine] |
| 0.04 nM | 0.7 nM | Clc1ccc2c(c1)CC1(Cc3nnc(N4CCC5(CC4)OCc4ccccc45)n3-2)OCCO1 [Example 155, 8′-chloro-1′-(1′H,3H-spiro[2-benzofuran-1,4′-piperidin]-1′-yl)-4′H,6′H-spiro[1,3-dioxolane-2,5′-[1,2,4]triazolo[4,3-a][1]benzazepine]] |
| 0.5 nM | 9.5 nM | O=C1Cc2cc(Cl)ccc2-n2c(nnc2N2CCC3(CC2)OCc2ccccc23)C1 [Example 156, 8-chloro-1-(1′H,3H-spiro[2-benzofuran-1,4′-piperidin]-1′-yl)-4H-[1,2,4]triazolo[4,3-a][1]benzazepin-5(6H)-one] |
| 62 nM | 1510 nM | CCC(C)(C)C(=O)N[C@H]1Cc2cc(Cl)ccc2-n2c(nnc2[C@H]2CC[C@H](Oc3ccccn3)CC2)C1 [Example 158, N-{(5S)-8-chloro-1-[trans-4-(pyridin-2-yloxy)cyclohexyl]-5,6-dihydro-4H-[1,2,4]triazolo[4,3-a][1]benzazepin-5-yl}-2,2-dimethylbutanamide] |
| 8 nM | 216 nM | CC(C)(O)C(=O)N[C@H]1Cc2cc(Cl)ccc2-n2c(nnc2[C@H]2CC[C@H](Oc3ccccn3)CC2)C1 [Example 159, N-{(5S)-8-chloro-1-[trans-4-(pyridin-2-yloxy)cyclohexyl]-5,6-dihydro-4H-[1,2,4]triazolo[4,3-a][1]benzazepin-5-yl}-2-hydroxy-2-methylpropanamide] |
| 0.4 nM | 4.9 nM | CCN(C)[C@H]1Cc2cc(Cl)ccc2-n2c(nnc2[C@H]2CC[C@H](Oc3ccccn3)CC2)C1 [Example 160] |
| 1.8 nM | 34 nM | CC(C)CN[C@H]1Cc2cc(Cl)ccc2-n2c(nnc2[C@H]2CC[C@H](Oc3ccccn3)CC2)C1 [Example 161, (5S)-8-chloro-N-(2-methylpropyl-1-[trans-4-pyridin-2-yloxy)cyclohexyl]-5,6-dihydro-4H-[1,2,4]triazolo[4,3-a][1]benzazepin-5-amine] |
